Source: article PMC10947113, “A Bivalent Activatable Fluorescent Probe for Screening and Intravital Imaging of Chemotherapy‐Induced Cancer Cell Death” (Angewandte Chemie (Weinheim an Der Bergstrasse, Germany), 2021)

Tested on: MMTV-PyMT mammary gland tumours
Assay: Intravital imaging and ex vivo quantification of cisplatin-induced apoptosis
Type: in vivo, mouse
From the text: Optical intravital imaging is increasingly used for the preclinical evaluation of anticancer drugs in vivo. Although imaging modalities like computed tomography, positron emission tomography and magnetic resonance imaging can help to visualise whole intact organs in a non‐invasive manner,[26] they lack the spatiotemporal resolution needed to study dynamic interactions between individual tumour and stromal cells. This feature is critical to understand the mechanism of action of anticancer drugs and how they can affect interactions between cancer cells and immune cells in the tumour microenvironment.[27] Intravital imaging heavily relies on the acquisition of fluorescence signals using multiphoton microscopy, which provides cellular resolution with deep tissue penetration (≈500 μm) and minimal photodamage.[28] […] First, we analysed the chemical stability of Apotracker Red for in vivo studies by incubating the probe in mouse serum. […] When primary tumours measured around 0.5–1 cm in diameter, we administered cisplatin intraperitoneally (10 mg kg^−1). […]
were centrifuged (300 g, 5 min, r.t.), washed once with PBS before addition of 0.05% Trypsin, 0.02% ethylenediaminetetraacetic acid (EDTA) in Hank’s balanced salt solution (HBSS) and incubation at 37°C for 5 min. […] Histograms and mean fluorescence intensities of apoptotic cells were measured on a 5L LSR flow cytometer under the following […]

N.N.[Cl][Pt][Cl] [cisplatin]
Apotracker Red fluorescence in tumours of cisplatin-treated mice (cancer cell death) (MMTV-PyMT;ACTB-ECFP mice, cisplatin 10 mg kg^-1 intraperitoneally, Apotracker Red 650 ng i.v. after 72 h, two-photon intravital imaging): strong red fluorescent signals indicating cancer cell death induced by the drug | relative percentages of apoptotic cells in tumours, ex vivo quantification (cisplatin 10 μg g^-1 i.p., day 3, at least 5 tumour areas per mouse, mean±SEM, one-way ANOVA p<0.05): significant differences
